pIC50: −log10 of the molar value. Where “and” joins values, the source holds several entries; their conditions need not be identical. Equal values may be shown once. Numbered stars: 1 amine (or outer) side, 2 acyl side, 3 side chain; on linkers, the order of the positions; unused ones are H or OH. Bridge positions count the residues as written; N and C are the ends. Square brackets hold non-standard residues; d marks the D form. Peptide text beside a SMILES is read from it. I, II: the chains in the order shown. Phe(4-COOH) = N[C@@H](Cc1ccc(C(=O)O)cc1)C(=O)O; Phe(4-tBu) = CC(C)(C)c1ccc(C[C@H](N)C(=O)O)cc1; 1Nal = N[C@@H](Cc1cccc2ccccc12)C(=O)O; Diglycolyl = O=C(COCC(=O)[*:2])[*:1]; NMeR = CN[C@@H](CCCNC(=N)N)C(=O)O; β3hE = N[C@@H](CCC(=O)O)CC(=O)O; NMeK = CN[C@@H](CCCCN)C(=O)O; Pen = CC(C)(S)[C@H](N)C(=O)O
Assays:
α4β1 = target: T1, α4β1 (Homo sapiens, UniProt P05556+P13612, DEL729-798); assay: α4β1-VCAM Competition ELISA; assay type: binding; details: Table 3-B, Selectivity (α4β1); range classes; read-out: α4β1 ELISA IC50
T1 construct: purchased R&D Systems 5668-A4
T1 sequence (P13612 34-977 limits assumed, stated change not applied): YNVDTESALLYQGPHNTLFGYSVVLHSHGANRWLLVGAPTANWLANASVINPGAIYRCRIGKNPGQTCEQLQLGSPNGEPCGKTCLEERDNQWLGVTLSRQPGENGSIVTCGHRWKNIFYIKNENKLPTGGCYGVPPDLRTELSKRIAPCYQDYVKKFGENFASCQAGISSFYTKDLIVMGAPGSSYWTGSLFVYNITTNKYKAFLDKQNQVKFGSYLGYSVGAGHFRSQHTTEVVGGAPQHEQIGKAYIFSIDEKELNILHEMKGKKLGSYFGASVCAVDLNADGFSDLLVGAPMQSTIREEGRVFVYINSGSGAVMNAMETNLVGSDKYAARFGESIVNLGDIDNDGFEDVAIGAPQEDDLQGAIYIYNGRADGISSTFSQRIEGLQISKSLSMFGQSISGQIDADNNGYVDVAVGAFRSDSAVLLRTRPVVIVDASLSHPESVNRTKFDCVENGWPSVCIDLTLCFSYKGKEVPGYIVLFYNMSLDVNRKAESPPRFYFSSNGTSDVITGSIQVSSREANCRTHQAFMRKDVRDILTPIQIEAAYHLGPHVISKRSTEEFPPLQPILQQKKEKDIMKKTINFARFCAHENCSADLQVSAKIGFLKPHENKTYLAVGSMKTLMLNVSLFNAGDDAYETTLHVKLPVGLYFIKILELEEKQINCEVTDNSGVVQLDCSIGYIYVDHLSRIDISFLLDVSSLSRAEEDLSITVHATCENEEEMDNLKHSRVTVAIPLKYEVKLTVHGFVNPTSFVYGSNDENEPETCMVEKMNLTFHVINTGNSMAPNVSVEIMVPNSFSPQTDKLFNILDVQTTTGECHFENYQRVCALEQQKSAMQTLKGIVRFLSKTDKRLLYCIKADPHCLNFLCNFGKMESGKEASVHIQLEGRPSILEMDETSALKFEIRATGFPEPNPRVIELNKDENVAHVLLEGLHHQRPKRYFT
T1 sequence (P05556 21-728 limits assumed, stated change not applied): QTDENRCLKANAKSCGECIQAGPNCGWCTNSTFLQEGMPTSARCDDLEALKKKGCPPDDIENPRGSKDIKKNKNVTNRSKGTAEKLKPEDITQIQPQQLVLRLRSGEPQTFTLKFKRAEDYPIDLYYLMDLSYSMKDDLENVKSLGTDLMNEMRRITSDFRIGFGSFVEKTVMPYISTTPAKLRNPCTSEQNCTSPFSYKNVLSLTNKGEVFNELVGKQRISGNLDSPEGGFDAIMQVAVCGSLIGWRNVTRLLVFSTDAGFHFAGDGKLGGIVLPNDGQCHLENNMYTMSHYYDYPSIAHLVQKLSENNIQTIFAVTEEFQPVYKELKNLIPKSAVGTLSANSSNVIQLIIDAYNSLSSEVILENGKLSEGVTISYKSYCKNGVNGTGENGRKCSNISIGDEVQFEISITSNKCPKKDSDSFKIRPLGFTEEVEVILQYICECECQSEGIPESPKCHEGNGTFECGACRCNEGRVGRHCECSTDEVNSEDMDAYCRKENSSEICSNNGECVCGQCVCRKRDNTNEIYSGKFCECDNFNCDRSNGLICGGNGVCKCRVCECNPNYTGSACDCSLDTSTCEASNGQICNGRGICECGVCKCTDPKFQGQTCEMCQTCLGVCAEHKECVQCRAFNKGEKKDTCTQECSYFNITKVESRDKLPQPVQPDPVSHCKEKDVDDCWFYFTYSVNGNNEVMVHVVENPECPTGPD
Summary of the method: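 ELISA plates were coated with VCAM-1 Fc at 400 ng/well. Peptide dilutions (highest final 100 μM) and 60 nM α4β1 were incubated 2 h at 37 °C in pH 7.6 Tris buffer containing 1 mM Mn2+ or Mg2+. Integrin retained on the plate was detected by 9F10 antibody, then HRP secondary, with TMB absorbance at 450 nm.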

α4β7 = α4β7 (Homo sapiens, UniProt P13612+P26010); assay: PBMC Memory T Cell Adhesion Assay, adhesion to MAdCAM-1; assay type: cell-based; details: Table 3-B; range classes; read-out: PBMC IC50
α4β7, sequence (P13612 34-1032): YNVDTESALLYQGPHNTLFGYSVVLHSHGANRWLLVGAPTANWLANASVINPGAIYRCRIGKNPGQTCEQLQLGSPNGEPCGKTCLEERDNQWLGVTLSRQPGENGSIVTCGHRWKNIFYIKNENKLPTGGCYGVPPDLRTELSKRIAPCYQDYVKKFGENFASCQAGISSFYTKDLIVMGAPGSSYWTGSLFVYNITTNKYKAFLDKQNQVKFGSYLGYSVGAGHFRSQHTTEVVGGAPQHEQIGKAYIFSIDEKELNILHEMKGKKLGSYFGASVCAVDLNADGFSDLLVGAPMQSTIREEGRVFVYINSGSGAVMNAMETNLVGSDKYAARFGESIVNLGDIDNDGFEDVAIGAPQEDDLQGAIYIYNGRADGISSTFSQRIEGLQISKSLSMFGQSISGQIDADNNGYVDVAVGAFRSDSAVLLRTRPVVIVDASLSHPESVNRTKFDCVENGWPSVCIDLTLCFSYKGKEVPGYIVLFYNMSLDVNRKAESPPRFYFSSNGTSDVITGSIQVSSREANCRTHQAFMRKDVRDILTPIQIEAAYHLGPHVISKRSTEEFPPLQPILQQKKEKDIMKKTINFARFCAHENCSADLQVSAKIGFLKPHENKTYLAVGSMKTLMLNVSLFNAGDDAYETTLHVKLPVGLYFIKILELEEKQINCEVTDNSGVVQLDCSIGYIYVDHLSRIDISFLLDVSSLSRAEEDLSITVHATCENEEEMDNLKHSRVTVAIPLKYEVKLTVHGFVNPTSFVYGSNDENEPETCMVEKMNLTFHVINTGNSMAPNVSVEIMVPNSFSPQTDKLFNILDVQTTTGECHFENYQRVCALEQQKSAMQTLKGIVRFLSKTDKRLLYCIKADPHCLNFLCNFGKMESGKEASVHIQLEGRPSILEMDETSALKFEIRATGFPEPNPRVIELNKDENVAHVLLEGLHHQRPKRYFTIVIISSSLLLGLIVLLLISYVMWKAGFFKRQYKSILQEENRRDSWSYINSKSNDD
α4β7, sequence (P26010 20-798): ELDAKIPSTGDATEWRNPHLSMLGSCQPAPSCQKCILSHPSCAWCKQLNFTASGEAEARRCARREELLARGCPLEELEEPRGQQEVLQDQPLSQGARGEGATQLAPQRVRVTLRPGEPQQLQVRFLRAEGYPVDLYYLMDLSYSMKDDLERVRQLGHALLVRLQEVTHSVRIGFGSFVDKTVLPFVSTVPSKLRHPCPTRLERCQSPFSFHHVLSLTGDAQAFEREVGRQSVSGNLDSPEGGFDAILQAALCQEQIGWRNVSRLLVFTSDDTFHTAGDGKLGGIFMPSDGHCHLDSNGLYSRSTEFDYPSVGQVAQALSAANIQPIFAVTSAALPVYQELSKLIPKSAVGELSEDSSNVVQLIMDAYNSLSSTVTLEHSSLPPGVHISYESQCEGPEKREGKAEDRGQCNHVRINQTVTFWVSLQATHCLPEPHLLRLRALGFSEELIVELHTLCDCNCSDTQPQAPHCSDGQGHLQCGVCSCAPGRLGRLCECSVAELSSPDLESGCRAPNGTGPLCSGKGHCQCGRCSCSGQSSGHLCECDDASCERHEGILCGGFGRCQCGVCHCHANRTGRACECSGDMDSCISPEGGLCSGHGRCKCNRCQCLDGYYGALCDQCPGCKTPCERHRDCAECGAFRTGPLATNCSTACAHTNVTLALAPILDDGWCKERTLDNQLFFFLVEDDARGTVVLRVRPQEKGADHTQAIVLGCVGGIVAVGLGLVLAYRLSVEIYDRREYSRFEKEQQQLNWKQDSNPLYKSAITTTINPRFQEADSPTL
Method: Fresh CD4+/CD45RO+ memory T cells were isolated from human peripheral blood mononuclear cell (PBMC) donors by Aragen Bioscience Inc. (Morgan Hill, Calif.). The assay plate was prepared using IgG Fc capture antibody (donkey anti human) immobilized at 500 ng/well in 50 mM sodium bicarbonate buffer, pH 9.5, ON, 4C onto a Greiner Fluotrac plate (100 ul per well). The plate was rinsed two time with Blocking Buffer (25 mM Tris HCl, pH7.5, 150 mM NaCl, 1.5% BSA, 0.05% Tween), and blocked with Blocking Buffer for 2 hours at 37 C or 5 hours at RT using 200 ul per well. The Blocking Buffer was removed and either MAdCAM-1 or VCAM-1 at 400 ng/well in Blocking Buffer was added and the plate incubated overnight at 4C (100 ul per well). The plate was washed two times with Blocking Buffer, and rinsed once with 200 ul Binding Media (DMEM phenol red free, 10 mM HEPES, 1×Na pyruvate, 1× Glutamine, and supplemented with 1 mM MnCl2 prior to use). To prepare cells, approximately 25 million CD4+/CD45RO+ memory T cells were counted by trypan blue exclusion using a haemocytometer to determine viability and cell count. The cells were transferred to a 50 ml conical tube, and centrifuged at 1200 rpm for 10 minute. The media was aspirated and the cell pellet resuspended in 15 ml Binding Media. The cells were centrifuged again and resuspended in the appropriate amount of Binding Media to be used for assays (50 ul of cells per well at 2× the final density). To each well, and equal volume (50 ul) of test compound was added and the plate was incubated for 1.5 hours at 37 C, 5% CO2. Each well was rinsed 3× with 150 ul per well of Binding Media. […] The plate was incubated at 37 C, 5% CO2, for 45 minutes. The plate was protected from light by using black adhesive seals. Fluorescence intensity was measured using a Molecular Devices Gemini EM Fluorescent Plate Reader (Ex 485/Em530, Bottom Read, Reading Sensitivity=20). IC50 curves are generated using Graph Pad Prism and the curves analyzed using analyzed using a non-linear regression (four parameters) algorithm. The log (concentration) versus RFU (Ex485/Em530) was plotted to determine IC50 values.

| Structure (SMILES) | pIC50 (α4β1) | pIC50 (α4β7) |
| --- | --- | --- |
| CC(=O)N[C@@H]1C(=O)N(C)[C@@H](CCCNC(=N)N)C(=O)N[C@@H](CO)C(=O)N[C@@H](CC(=O)O)C(=O)N[C@@H]([C@@H](C)O)C(=O)N[C@@H](CC(C)C)C(=O)N[C@H](C(=O)N[C@@H](Cc2ccc(C(C)(C)C)cc2)C(=O)N[C@@H](CCC(=O)O)CC(=O)O)C(C)(C)SSC1(C)C [compound 152] (Ac-[Pen][NMeR]SDTL[Pen][Phe(4-tBu)][β3hE]-OH; disulfide 1-7) | 6.30 to 7.00 | 7.30 to 7.60 |
| CC(=O)N[C@@H]1C(=O)N(C)[C@@H](CCCNC(=N)N)C(=O)N[C@@H](CO)C(=O)N[C@@H](CC(=O)O)C(=O)N[C@@H]([C@@H](C)O)C(=O)N[C@@H](CC(C)C)C(=O)N[C@H](C(=O)N[C@@H](Cc2c[nH]c3ccccc23)C(=O)N[C@H](CCC(=O)O)C(=O)N[C@H](CCCCNC(=O)COCC(=O)NCCCC[C@@H](NC(=O)[C@@H](CCC(=O)O)NC(=O)[C@H](Cc2c[nH]c3ccccc23)NC(=O)[C@H]2NC(=O)[C@H](CC(C)C)NC(=O)[C@H]([C@@H](C)O)NC(=O)[C@H](CC(=O)O)NC(=O)[C@H](CO)NC(=O)[C@H](CCCNC(=N)N)N(C)C(=O)[C@@H](NC(C)=O)C(C)(C)SSC2(C)C)C(N)=O)C(N)=O)C(C)(C)SSC1(C)C [compound 68] (I: Ac-[Pen][NMeR]SDTL[Pen]W[dE][dK]-NH2 / II: Ac-[Pen][NMeR]SDTL[Pen]W[dE][dK]-NH2; disulfide I:1-I:7, II:1-II:7; linker I:10-II:10 via Diglycolyl) | 6.00 to 6.30 | 6.30 to 7.00 |
| CC(=O)N[C@@H]1C(=O)N(C)[C@@H](CCCNC(=N)N)C(=O)N[C@@H](CO)C(=O)N[C@@H](CC(=O)O)C(=O)N[C@@H]([C@@H](C)O)C(=O)N[C@@H](CC(C)C)C(=O)N[C@H](C(=O)N[C@@H](Cc2ccc(C(C)(C)C)cc2)C(=O)N[C@@H](CCC(=O)O)CC(=O)N[C@H](CCCCNC(=O)COCC(=O)NCCCC[C@@H](NC(=O)C[C@H](CCC(=O)O)NC(=O)[C@H](Cc2ccc(C(C)(C)C)cc2)NC(=O)[C@H]2NC(=O)[C@H](CC(C)C)NC(=O)[C@H]([C@@H](C)O)NC(=O)[C@H](CC(=O)O)NC(=O)[C@H](CO)NC(=O)[C@H](CCCNC(=N)N)N(C)C(=O)[C@@H](NC(C)=O)C(C)(C)SSC2(C)C)C(N)=O)C(N)=O)C(C)(C)SSC1(C)C [compound 132] (I: Ac-[Pen][NMeR]SDTL[Pen][Phe(4-tBu)][β3hE][dK]-NH2 / II: Ac-[Pen][NMeR]SDTL[Pen][Phe(4-tBu)][β3hE][dK]-NH2; disulfide I:1-I:7, II:1-II:7; linker I:10-II:10 via Diglycolyl) | 6.30 to 7.00 and 6.00 to 6.30 | > 8.00 |
| CC(=O)N[C@@H]1C(=O)N(C)[C@@H](CCCNC(=N)N)C(=O)N[C@@H](CO)C(=O)N[C@@H](CC(=O)O)C(=O)N[C@@H]([C@@H](C)O)C(=O)N[C@@H](CC(C)C)C(=O)N[C@H](C(=O)N[C@@H](Cc2ccc(C(C)(C)C)cc2)C(=O)N[C@@H](CCC(=O)O)CC(=O)N(C)[C@@H](CCCCNC(=O)COCC(=O)NCCCC[C@@H](C(N)=O)N(C)C(=O)C[C@H](CCC(=O)O)NC(=O)[C@H](Cc2ccc(C(C)(C)C)cc2)NC(=O)[C@H]2NC(=O)[C@H](CC(C)C)NC(=O)[C@H]([C@@H](C)O)NC(=O)[C@H](CC(=O)O)NC(=O)[C@H](CO)NC(=O)[C@H](CCCNC(=N)N)N(C)C(=O)[C@@H](NC(C)=O)C(C)(C)SSC2(C)C)C(N)=O)C(C)(C)SSC1(C)C [compound 149] (I: Ac-[Pen][NMeR]SDTL[Pen][Phe(4-tBu)][β3hE][NMeK]-NH2 / II: Ac-[Pen][NMeR]SDTL[Pen][Phe(4-tBu)][β3hE][NMeK]-NH2; disulfide I:1-I:7, II:1-II:7; linker I:10-II:10 via Diglycolyl) | 6.00 to 6.30 | > 8.00 |
| CC(=O)N[C@@H]1C(=O)N(C)[C@@H](CCCNC(=N)N)C(=O)N[C@@H](CO)C(=O)N[C@@H](CC(=O)O)C(=O)N[C@@H]([C@@H](C)O)C(=O)N[C@@H](CC(C)C)C(=O)N[C@H](C(=O)N[C@@H](Cc2ccc(C(=O)O)cc2)C(=O)N[C@@H](CCC(=O)O)C(=O)N[C@H](CCCCNC(=O)COCC(=O)NCCCC[C@@H](NC(=O)[C@H](CCC(=O)O)NC(=O)[C@H](Cc2ccc(C(=O)O)cc2)NC(=O)[C@H]2NC(=O)[C@H](CC(C)C)NC(=O)[C@H]([C@@H](C)O)NC(=O)[C@H](CC(=O)O)NC(=O)[C@H](CO)NC(=O)[C@H](CCCNC(=N)N)N(C)C(=O)[C@@H](NC(C)=O)C(C)(C)SSC2(C)C)C(N)=O)C(N)=O)C(C)(C)SSC1(C)C [compound 129] (I: Ac-[Pen][NMeR]SDTL[Pen][Phe(4-COOH)]E[dK]-NH2 / II: Ac-[Pen][NMeR]SDTL[Pen][Phe(4-COOH)]E[dK]-NH2; disulfide I:1-I:7, II:1-II:7; linker I:10-II:10 via Diglycolyl) | 6.30 to 7.00 | > 8.00 |
| CC(=O)N[C@@H]1C(=O)N(C)[C@@H](CCCNC(=N)N)C(=O)N[C@@H](CO)C(=O)N[C@@H](CC(=O)O)C(=O)N[C@@H]([C@@H](C)O)C(=O)N[C@@H](CC(C)C)C(=O)N[C@H](C(=O)N[C@@H](Cc2ccc(C(=O)O)cc2)C(=O)N[C@@H](CCC(=O)O)CC(=O)N[C@H](CCCCNC(=O)COCC(=O)NCCCC[C@@H](NC(=O)C[C@H](CCC(=O)O)NC(=O)[C@H](Cc2ccc(C(=O)O)cc2)NC(=O)[C@H]2NC(=O)[C@H](CC(C)C)NC(=O)[C@H]([C@@H](C)O)NC(=O)[C@H](CC(=O)O)NC(=O)[C@H](CO)NC(=O)[C@H](CCCNC(=N)N)N(C)C(=O)[C@@H](NC(C)=O)C(C)(C)SSC2(C)C)C(N)=O)C(N)=O)C(C)(C)SSC1(C)C [compound 130] (I: Ac-[Pen][NMeR]SDTL[Pen][Phe(4-COOH)][β3hE][dK]-NH2 / II: Ac-[Pen][NMeR]SDTL[Pen][Phe(4-COOH)][β3hE][dK]-NH2; disulfide I:1-I:7, II:1-II:7; linker I:10-II:10 via Diglycolyl) | 6.30 to 7.00 | > 8.00 |
| CC(=O)N[C@@H]1C(=O)N(C)[C@@H](CCCNC(=N)N)C(=O)N[C@@H](CO)C(=O)N[C@@H](CC(=O)O)C(=O)N[C@@H]([C@@H](C)O)C(=O)N[C@@H](CC(C)C)C(=O)N[C@H](C(=O)N[C@@H](Cc2cccc3ccccc23)C(=O)N[C@@H](CCC(=O)O)CC(=O)N(C)[C@@H](CCCCNC(=O)COCC(=O)NCCCC[C@@H](C(N)=O)N(C)C(=O)C[C@H](CCC(=O)O)NC(=O)[C@H](Cc2cccc3ccccc23)NC(=O)[C@H]2NC(=O)[C@H](CC(C)C)NC(=O)[C@H]([C@@H](C)O)NC(=O)[C@H](CC(=O)O)NC(=O)[C@H](CO)NC(=O)[C@H](CCCNC(=N)N)N(C)C(=O)[C@@H](NC(C)=O)C(C)(C)SSC2(C)C)C(N)=O)C(C)(C)SSC1(C)C [compound 142] (I: Ac-[Pen][NMeR]SDTL[Pen][1Nal][β3hE][NMeK]-NH2 / II: Ac-[Pen][NMeR]SDTL[Pen][1Nal][β3hE][NMeK]-NH2; disulfide I:1-I:7, II:1-II:7; linker I:10-II:10 via Diglycolyl) | 6.00 to 6.30 | 7.00 to 7.30 |
| CC(=O)N[C@@H]1C(=O)N(C)[C@@H](CCCNC(=N)N)C(=O)N[C@@H](CO)C(=O)N[C@@H](CC(=O)O)C(=O)N[C@@H]([C@@H](C)O)C(=O)N[C@@H](CC(C)C)C(=O)N[C@H](C(=O)N[C@@H](Cc2ccc(C(=O)O)cc2)C(=O)N[C@@H](CCC(=O)O)C(=O)N(C)[C@@H](CCCCNC(=O)COCC(=O)NCCCC[C@@H](C(N)=O)N(C)C(=O)[C@H](CCC(=O)O)NC(=O)[C@H](Cc2ccc(C(=O)O)cc2)NC(=O)[C@H]2NC(=O)[C@H](CC(C)C)NC(=O)[C@H]([C@@H](C)O)NC(=O)[C@H](CC(=O)O)NC(=O)[C@H](CO)NC(=O)[C@H](CCCNC(=N)N)N(C)C(=O)[C@@H](NC(C)=O)C(C)(C)SSC2(C)C)C(N)=O)C(C)(C)SSC1(C)C [compound 147] (I: Ac-[Pen][NMeR]SDTL[Pen][Phe(4-COOH)]E[NMeK]-NH2 / II: Ac-[Pen][NMeR]SDTL[Pen][Phe(4-COOH)]E[NMeK]-NH2; disulfide I:1-I:7, II:1-II:7; linker I:10-II:10 via Diglycolyl) | 6.30 to 7.00 | > 8.00 |
